Reference: PMC13077603, “Fluorine‐18‐Labeled Nucleotide Analogs Targeting Ecto‐5'‐Nucleotidase (CD73) for Positron Emission Tomography Imaging of Solid Tumors” (Angewandte Chemie (International Ed. in English), 2026)
pKi: −log10 of the molar value. Several values for one entry are separate records, joined by “and”; a condition that tells them apart may be missing. Identical values can stand only once.

Legend:
[1] = biological target: T1, CD73 in human breast cancer samples (Homo sapiens, UniProt P21589); assay: Autoradiography on human breast tumor and sentinel lymph node cryosections; assay type: binding; conditions: autoradiography, cryosections
T1 construct: cryosections of breast tumor samples as well as sentinel lymph node samples were investigated; from tissue; host or cells: primary breast tumors and sentinel lymph nodes of two patients, 6 µm cryosections
T1 sequence (P21589 27-574): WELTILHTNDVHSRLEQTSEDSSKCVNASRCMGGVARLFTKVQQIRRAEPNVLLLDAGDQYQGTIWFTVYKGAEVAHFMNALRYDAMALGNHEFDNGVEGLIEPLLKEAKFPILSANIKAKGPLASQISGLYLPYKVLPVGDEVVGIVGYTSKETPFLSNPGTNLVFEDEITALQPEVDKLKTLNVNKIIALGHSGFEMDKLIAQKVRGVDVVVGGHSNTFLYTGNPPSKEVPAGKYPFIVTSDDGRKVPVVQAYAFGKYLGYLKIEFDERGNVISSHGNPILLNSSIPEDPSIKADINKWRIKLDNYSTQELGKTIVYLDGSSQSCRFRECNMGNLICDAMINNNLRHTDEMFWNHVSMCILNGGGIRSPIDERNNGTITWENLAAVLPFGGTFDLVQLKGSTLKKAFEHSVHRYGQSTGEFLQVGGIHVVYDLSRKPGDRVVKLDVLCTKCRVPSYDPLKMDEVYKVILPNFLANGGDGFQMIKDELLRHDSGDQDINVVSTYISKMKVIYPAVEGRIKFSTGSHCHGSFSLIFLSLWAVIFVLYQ
Method: To test specific radiotracer binding to its target, we performed in situ autoradiography. [^18F]2 was applied onto cryosections of neighboring slides of tumor tissues from primary breast tumors from patient X (Figure 4A) and patient Y (Figure 4B), used for immunohistochemistry and AMPase activity determination. Sentinel LN from patient Y was incubated with [^18F]1 (Figure 4C).
FIGURE 4 Autoradiographic imaging of ^18F‐labeled CD73 tracer binding to tissue samples of breast tumors and sentinel lymph nodes. Primary breast tumor (A, B) and LN cryosections (C) were incubated with [^18F]2 or [^18F]1 in the absence (control) and in the presence of an unlabeled CD73 inhibitor, AMPCP (13) or JMS04‐14 (14), as indicated. The samples were processed for autoradiographic analysis, as described in the materials and methods section. The white dotted lines outline the tissue boundaries. (D). Structures of CD73 inhibitors applied as blockers in this study.
For the assessment of ^18F-labeled CD73 tracer binding to human tissues, cryosections of breast tumor samples as well as sentinel lymph node samples were investigated. Cryosections were thawed and pre-incubated for 15 min at room temperature in 2-[4-(2-hydroxyethyl)piperazin-1-yl]ethanesulfonic acid buffer (HEPES). […] Blocking compounds were prepared according to the molar activity of the radiolabeled tracers [^18F]MRS-4648 and [^18F]PSB-19427 aiming at a 1000-fold excess of the blocking agent. For each tissue sample, neighboring sections were incubated for 20 min at room temperature with a mixture of 50µL of the radiotracer and 50µL of the classical CD73 inhibitor AMPCP (25 nmol, in PBS), or JMS0414 (61 nmol, in HEPES), or HEPES buffer respectively. After incubation, slides were washed three times with PBS and Aqua bidest, mounted on a slide holder for the image acquisition, and covered with protection and scintillation foils. Digital autoradiography measurement of each slide was performed for 60 minutes (Micro Imager, Biospace, France). Acquired data were corrected for radioactive decay in reference to the start of the acquisition as well as the start of the incubation.

[2] = biological target: T2, Human membrane‐bound CD73 (membrane preparation of MDA‐MB‐231 cell line) (Homo sapiens, UniProt P21589); assay: CD73 enzyme inhibition assay, human membrane-bound CD73; assay type: biochemical; conditions: membrane preparation of human TNBC MDA‐MB‐231 cell line, Km 14.8 µM, substrate AMP (5 µM)
T2 construct: endogenous in cells; host or cells: MDA-MB-231 (human triple-negative breast cancer) membrane preparation
T2 sequence (P21589 27-574): T1 sequence (P21589 27-574)
Method: (§1) The CD73 enzyme inhibition assay of recombinant soluble CD73, membrane-bound human CD73, soluble rat CD73 and mouse CD73 was performed as previously described.^[16,35^]

[3] = biological target: T3, Mouse membrane‐bound CD73 (membrane preparation of 4T1.2 breast cancer cell line) (Mus musculus, UniProt Q61503); assay: CD73 enzyme inhibition assay, mouse membrane-bound CD73; assay type: biochemical; conditions: membrane preparation of mouse 4T1.2 breast cancer cell line, Km 67.6 µM, substrate AMP (5 µM)
T3 construct: endogenous in cells; host or cells: 4T1.2 mouse breast cancer cell line, membrane preparation (as named in the result head)
T3 sequence (Q61503 29-576): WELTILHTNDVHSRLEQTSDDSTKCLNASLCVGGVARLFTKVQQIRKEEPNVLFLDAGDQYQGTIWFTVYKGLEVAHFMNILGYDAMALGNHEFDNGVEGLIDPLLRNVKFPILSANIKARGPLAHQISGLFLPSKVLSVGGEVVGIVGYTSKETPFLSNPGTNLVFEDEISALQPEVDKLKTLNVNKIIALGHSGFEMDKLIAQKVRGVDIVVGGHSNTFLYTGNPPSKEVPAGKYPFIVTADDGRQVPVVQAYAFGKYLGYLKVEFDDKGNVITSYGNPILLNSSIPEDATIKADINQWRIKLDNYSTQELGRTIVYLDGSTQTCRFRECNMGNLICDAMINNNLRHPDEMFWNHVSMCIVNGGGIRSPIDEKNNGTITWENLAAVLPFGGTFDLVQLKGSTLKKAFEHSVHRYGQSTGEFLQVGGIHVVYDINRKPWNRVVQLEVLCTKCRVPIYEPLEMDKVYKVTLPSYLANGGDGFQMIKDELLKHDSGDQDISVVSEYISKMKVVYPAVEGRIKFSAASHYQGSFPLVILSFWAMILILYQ
Method: Both compounds were evaluated for metabolic stability in mouse liver microsomes (MLM) and plasma protein binding (PPB) (Table 1).
as §1

[4] = Stability in mouse liver microsomes (MLM); assay type: in vitro ADME; conditions: after 90 min of coincubation, 5 µM compound, 37 °C
Method: An aqueous buffer of 75 mM PBS, 12.5 mM MgCl2, 0.6 mM NADPH, 1 mg/mL mouse liver microsomes and 5 µM of the respective compound was prepared. 200 µL of these samples were incubated for 90 min at 37 °C and […]. Afterward, acetonitrile/methanol (400 µL, 1:1) was added, and the samples were cooled to 0 °C for 10 min. 600 µL buffer was added and the solution was centrifuged for 15 min at 17,880 g. The supernatant was centrifuged again for 15 min at 17,880 g and 4 °C. The obtained solution was diluted with H2O/CH3CN/CH3OH (1:1:1) to a suitable concentration for quantification. Shortly before injection into HPLC, the solution was centrifuged again for 2 min at 17,880 g and 4 °C. The amount of remaining compound in the solution was quantified by ion count in SIM mode via HPLC-MS (CH3CN/water). The injection volume was 50 µL. Every experiment was performed in triplicate.

Compound	Tracer binding to CD73 in human breast cancer samples [1]	pKi [2]	pKi [3]	Metabolic stability in mouse liver microsomes (MLM): % decomposition [4]
CCCN(Cc1ccc(-c2cn(CC[18F])nn2)cc1)c1nc(Cl)nc2c1ncn2[C@@H]1O[C@H](COP(=O)(O)CP(=O)(O)O)[C@@H](O)[C@H]1O [[^18F]1, [^18F]-[((2R,3S,4R,5R)-5-{2-chloro-6-[(4-{1-[2-(fluoro)ethyl]-1H-1,2,3-triazol-4-yl}benzyl)-(propyl)amino]-9H-purin-9-yl}-3,4-dihydroxytetrahydrofuran-2-yl)methoxy]methylene-bisphosphonic acid]	selectively bind	–	–	–
Cn1c(=O)n([C@@H]2O[C@H](COP(=O)(O)CP(=O)(O)O)[C@@H](O)[C@H]2O)cc/c1=N/OCc1ccc(-c2cn(CC[18F])nn2)cc1 [[^18F]2, [^18F]-{[(2R,3S,4R,5R)-5-(4-{[(4-{1-[2-(fluoro)ethyl]-1H-1,2,3-triazol-4-yl}benzyl)-oxy]imino}-3-methyl-2-oxo-3,4-dihydropyrimidin-1(2H)-yl)-3,4-dihydroxytetra-hydrofuran-2-yl]methoxy}methylenebisphosphonic acid]	selectively bind	–	–	–
CCCN(Cc1ccc(-c2cn(CCF)nn2)cc1)c1nc(Cl)nc2c1ncn2[C@@H]1O[C@H](COP(=O)(O)CP(=O)(O)O)[C@@H](O)[C@H]1O [compound 1]	–	8.56	7.32	17 ± 2% and 17%
